The target of assay [1] is T1, HDAC6 (Homo sapiens, UniProt Q9UBN7).
T1 construct: The HeLa nuclear extract was used as a source of HDAC activity; host or cells: HeLa (nuclear extract / cells)
T1 sequence (Q9UBN7 1-1215): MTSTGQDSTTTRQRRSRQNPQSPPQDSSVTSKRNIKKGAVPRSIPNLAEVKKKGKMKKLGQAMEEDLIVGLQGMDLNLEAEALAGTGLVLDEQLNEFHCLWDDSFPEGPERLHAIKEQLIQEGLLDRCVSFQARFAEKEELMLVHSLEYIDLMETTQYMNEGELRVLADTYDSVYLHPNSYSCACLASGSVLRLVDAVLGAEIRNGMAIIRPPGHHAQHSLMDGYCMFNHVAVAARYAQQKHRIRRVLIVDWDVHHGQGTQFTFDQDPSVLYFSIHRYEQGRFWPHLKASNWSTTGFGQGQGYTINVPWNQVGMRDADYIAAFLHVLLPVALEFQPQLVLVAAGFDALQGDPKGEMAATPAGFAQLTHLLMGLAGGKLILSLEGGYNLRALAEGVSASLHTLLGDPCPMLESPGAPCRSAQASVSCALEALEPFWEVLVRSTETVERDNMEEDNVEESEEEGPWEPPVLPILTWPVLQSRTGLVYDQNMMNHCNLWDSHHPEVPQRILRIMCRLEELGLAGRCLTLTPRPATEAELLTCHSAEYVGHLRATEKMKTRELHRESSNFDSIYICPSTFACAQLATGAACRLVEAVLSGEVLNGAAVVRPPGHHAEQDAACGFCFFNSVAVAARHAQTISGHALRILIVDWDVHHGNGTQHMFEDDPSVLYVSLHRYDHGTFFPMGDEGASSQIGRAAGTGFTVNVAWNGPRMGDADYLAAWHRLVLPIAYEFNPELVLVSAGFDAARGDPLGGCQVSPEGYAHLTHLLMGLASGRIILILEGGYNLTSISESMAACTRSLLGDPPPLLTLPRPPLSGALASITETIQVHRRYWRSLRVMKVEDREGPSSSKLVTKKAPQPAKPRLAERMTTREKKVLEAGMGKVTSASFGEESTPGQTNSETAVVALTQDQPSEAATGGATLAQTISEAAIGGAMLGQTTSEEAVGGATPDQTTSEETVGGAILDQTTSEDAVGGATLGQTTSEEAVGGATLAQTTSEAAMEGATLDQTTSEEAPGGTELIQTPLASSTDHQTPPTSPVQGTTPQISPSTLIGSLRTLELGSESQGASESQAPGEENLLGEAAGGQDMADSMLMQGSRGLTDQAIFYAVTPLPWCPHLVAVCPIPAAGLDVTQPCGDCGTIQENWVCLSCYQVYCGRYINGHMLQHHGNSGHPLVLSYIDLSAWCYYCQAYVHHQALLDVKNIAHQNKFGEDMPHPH
As to the kind of experiment: HDAC inhibition assay (color de lys ELISA kit), HDAC6. The note with it: HeLa nuclear extract as source of HDAC activity. The class given is biochemical. On the procedure:
(§1) SAHA served as the assay’s positive control. The HeLa nuclear extract was used as a source of HDAC activity. The trypsinized HeLa cells were tallied, put into 96-well microtiter plates, and nurtured. Samples and the standard were placed in wells at a concentration of 100 µL. The culture environment was maintained as per the procedure. 3,3′,5,5′-tetramethylbenzidine (TMB) was included for visualization. Finally, 50 µL of halt solution was smeared. The samples and different SAHA concentrations (0.01, 0.1, 1, 10 μM) were introduced to the appropriate well and left for 72 h. BioTek Epoch (Winooski, VT, USA) microplate reader was used to quantify optical density at 450 nm. The Graph Pad Prism 5 helped to determine the IC50 values.
On the technique in general: An ELISA detects its analyte on a solid surface through an enzyme-linked reagent.

The subject of assay [2] is MCF-7 (Human Breast Cancer Cell Line). As to the kind of experiment: SRB antiproliferative assay, MCF-7. The conditions noted are these: Homo sapiens, MCF7, MCF-7, 48 h, read-out: GI50. The class given is cell-based. On the procedure: Following an extensive review of the literature, we selected human breast cancer (MCF-7, MDA-MB-231) and lung cancer (A549) cell lines to evaluate the anticancer potential of the synthesized compounds, and some compounds with good anti-proliferation activity were again tested to evaluate their cytotoxic potential on A-549, MCF-7, and MDA-MB-231. The same were also tested on one non-cancerous/normal (HEK-293) cell line. All the cell lines for the required screening were developed in a suitable medium comprising 10% FBS and 2mM L-glutamine. Cancerous and non-cancerous/normal cell lines were selected for the cell proliferation and cytotoxicity assay and maintained with 5% CO2 at 37 °C in a CO2 incubator with 100% relative humidity for one complete day before the addition of experimental drugs.
Antiproliferative activity through an SRB assay was performed for all the synthesized compounds on A-549 and MCF-7 cell lines. Around 5000 cells/well were quarantined into a 96-well microtiter plate in 100 μL. The synthesized compounds were solubilized in DMSO and diluted to different concentrations before use. The final-drug-concentration aliquots were poured into microtiter wells, and the plates were incubated for 48 h in regular conditions. After adding the final drug concentration, the cells were allowed to set in place and incubated for 60 min. A total of 50 µL of SRB solution (0.4% w/v) in 1% CH3COOH was poured into each well. The plates were then incubated for 20 min at RT. During subsequent staining, the unbounded dye was removed, and the plate reader recorded the eluted bound stain at 540 nm with a 690 nm reference wavelength. The assay was performed precisely using the appropriate reagents and reaction situation, as per the reported procedure. ADR was selected as the reference drug.

The test system of assay [3] is MCF-7 cells. As to the kind of experiment: Cell cycle analysis, propidium iodide flow cytometry. The format is cell-based, human. On the procedure: Apoptosis can also be determined based on the content of the DNA allocation at different stages of cell cycle distribution. The cultured MCF-7 cell line was washed, trypsinized, and seeded, followed by compound VI(i) exposure in a 6-well cell culture plate. Following this, cells were harvested using 1mM EDTA; then, to fix the cells, ice-cold ethanol was used, and overnight, cells were kept at −20 °C. Afterwards, cells were maintained at room temperature, followed by centrifugation at 3000 RPM for 7 min. Then, staining was conducted using propidium iodide, RNase A, and Triton-X in a buffer (phosphate-buffered saline). It was then analyzed using a flow cytometer.

Assay [4] addresses T2, HDAC1 (Homo sapiens, UniProt Q13547).
T2 construct: The HeLa nuclear extract was used as a source of HDAC activity; host or cells: HeLa (nuclear extract / cells)
Kind of assay: HDAC inhibition assay (color de lys ELISA kit), HDAC1. The conditions noted are these: HeLa nuclear extract as source of HDAC activity. The class given is biochemical. On the procedure:
as §1

Where [5] appears, read: MCF-7, IC50 concentration (60 µg/mL).
[6] abbreviates: MCF-7, higher concentration (80 µg/mL).
Setting [7] is: MCF-7, lower concentration (40 µg/mL).

T2 sequence (Q13547 whole entry): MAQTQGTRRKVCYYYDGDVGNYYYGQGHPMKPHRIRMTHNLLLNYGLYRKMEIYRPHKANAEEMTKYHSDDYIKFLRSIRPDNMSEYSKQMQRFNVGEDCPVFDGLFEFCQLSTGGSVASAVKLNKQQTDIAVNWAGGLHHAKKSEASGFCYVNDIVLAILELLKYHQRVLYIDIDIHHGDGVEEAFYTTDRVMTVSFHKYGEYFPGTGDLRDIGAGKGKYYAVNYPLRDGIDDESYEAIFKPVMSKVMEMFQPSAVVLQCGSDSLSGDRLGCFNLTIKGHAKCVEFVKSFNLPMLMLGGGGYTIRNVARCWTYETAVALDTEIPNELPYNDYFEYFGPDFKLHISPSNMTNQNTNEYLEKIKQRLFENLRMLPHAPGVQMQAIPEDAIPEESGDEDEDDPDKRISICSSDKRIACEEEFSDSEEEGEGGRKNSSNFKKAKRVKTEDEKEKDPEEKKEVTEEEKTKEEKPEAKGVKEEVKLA

Regarding `COc1ccc(-c2cnn(CCCCCC(=O)NO)n2)cc1` [VI(i), N-Hydroxy-6-(4-(4-methoxyphenyl)-2H-1,2,3-triazol-2-yl)hexanamide], the half-inhibitory concentration (IC50) in assay [1] was 13.4 µM; in assay [4] it was 10.1 µM. Further, the GI50 in assay [2] was less than 10 µg/mL. The “increase in cells arrested in G2/M phase compared to control” value in assay [3] (setting [5]) is reported as 15.91%; in assay [3] (setting [6]), 19.35%; in assay [3] (setting [7]) it was 11.98%. Besides, the “increase in cells arrested in S phase compared to control” value in assay [3] (setting [5]) is recorded as 6.9%; in assay [3] (setting [6]) it was 6.07%; in assay [3] (setting [7]), 5.92%.

The term IC50 denotes the midpoint of a concentration-inhibition curve. A low value points to greater potency in that assay. Usually GI50 stands for the concentration that inhibits growth by half.
